Patent US20220265656A1, “COMBINATION THERAPIES WITH IRE1 SMALL MOLECULE INHIBITORS” (Cornell University, priority 2019, published 2022)
Where a name gives a salt, the structure may show the parent alone.

Columns and labels:
IRE1a [1] = molecular target: T1, IRE1a (Homo sapiens, UniProt O75460); test: In vitro FRET assay (IRE1a cleavage of XBP1 RNA probe); assay type: biochemical; parameters: purchased SignalChem; settings: 2 nM IRE1a
Protocol: In vitro FRET assay was performed to evaluate the ability of select compounds to inhibit IRE1, the results of which are summarized in Table 3. To perform the in vitro FRET assay, 1× complete assay buffer (CAB; […], 50 mM sodium citrate pH 7.15, 1 mM magnesium acetate, 0.02% tween 20) was used to dilute SignalChem IRE1a protein to a final concentration of 2 nM. Selected compounds were serially diluted with DMSO in a non-binding black 384-well plate for a total of 15 ul in each well, 2 ul of the serially diluted compound or DMSO control were then added to new wells containing 98 ul of 1×CAB, for a total volume of 100 ul, 10 ul of which were then transferred to wells of a new plate, 5 ul of the diluted IRE1a was then added to each well, 5 ul of a […] XBP1 RNA probe was then added to each well. Fluorescence was then read over 30 minutes in kinetic mode (485/515 nm).
Two RNA probes were used, XBP1 wildtype (SEQ ID NO: 2) which is able to be spliced by active IRE1a or XBP1 mutant (SEQ ID NO: 3) which is unable to be spliced. Each probe contained a 5′ 6-FAM modification and a 3′ IOWA Black FQ modification. […]

IRE1a [2] = molecular target: T1, IRE1a; test: IRE1a Endoribonuclease Nanoluciferase Assay in 293T cells; assay type: cell-based; parameters: endogenous in cells; host or cells: 293T cells; settings: XBP1 luciferase reporter in 293T cells, ER stressor
Protocol: Compounds disclosed herein were assessed for disruption of IRE1 signaling using a IRE1a Endoribonuclease Nanoluciferase Assay. Briefly, 2.5×10^6 293T cells were seeded in a 10 cm^2 tissue culture plate. About 24 hours later, the cells were transfected with Effectene. In a 15 mL tube, the following was added: 2 ug XBP1 luciferase reporter plasmid (PGK-Luc2-P2A-XBP1u-Nanoluciferase-PEST); 300 ul EC buffer; and 16 ul Enhancer, followed by incubation at room temp for 5 minutes. Next, 60 ul Effectene (Qiagen 301427) was added, followed by incubation at room temperature for 10 minutes, 2.6 mL cDMEM media was added. Old media was aspirated from the cells, followed by addition of 7 mL fresh media. Full transfection mixture was added dropwise to cells. Cells were incubated for 6 hours, followed by trypsinization, centrifugation and resuspension in 11 mL fresh cDMEM media, 100 uL of cells were plated per a well in a 96 well plate. A day later, ER stressors of choice +/−inhibitors were added. To harvest, media was aspirated from cells completely, then 50 uL 1× passive lysis buffer (Promega: E1941) was added per well and put on shaker (300 rpm) for 30 minutes at room temperature. Cells were centrifuged, and 15 uL sample per well was added to a new, opaque white 384 well plate (Corning 3570), 15 uL OneGlo (nanoluciferase kit, Promega N1630) was added. Plates were spun down, placed on shaker (300 rpm) for 10 minutes. Plates were read on luminometer, 1000 ms integration time per well, 15 uL Stop and Glo (nanoluciferase kit) was added. Plates were spun down, placed on shaker (300 rpm) for 10 minutes. Plates were read on luminometer, 1000 ms second integration time per well. Recordings are provided below in Table 4.

[3] = Metabolic assays of N,N-dimethyl compounds; assay type: in vitro ADME; settings: data not shown
IRE1a/XBP1 pathway = test: Inhibition of endogenous XBP1 splicing in 293T cells with tunicamycin; assay type: cell-based, human
Protocol: Gene expression was evaluated by quantitative PCR for XBP1s and total XBP1 transcripts using the 2^(−ΔCT) method for calculating normalized gene expression. Gene expression levels were normalized to ACTB transcripts. XBP1 splicing was calculated as actin-normalized XBP1s expression divided by actin-normalized total XBP1 expression.

[4] = tested on: IRE1a-dependent XBP1 splicing; test: Inhibition of IRE1a-dependent XBP1 splicing in ovarian cancer cells in vivo; parameters: species or system mouse; settings: mice with metastatic ovarian cancer, single oral dose 45 mg/kg, 24 hours
Protocol: Mice (n=3) with established metastatic ovarian cancer were orally gavaged with 45 mg/kg vehicle control or inhibitor dissolved in H2O. The inhibitor was Compound C. Compound C is 2-chloro-N-(5-(2-(((1r,4r)-4-(dimethylamino)cyclohexyl)amino)-8-ethylquinazolin-6-yl)-6-methylpyridin-2-yl)benzenesulfonamide, Compound 91, described herein. After 24 hours, mice were euthanized, ascites-resident cells were extracted and tumor cells, dendritic cells (DCs), and CD4+ T cells were isolated by FACS. The samples were used for subsequent RT-qPCR analysis of beta-actin, XBP1s and total XBP1. Gene expression was evaluated by quantitative PCR for XBP1s and total XBP1 transcripts using the 2^(−ΔCT) method for calculating normalized gene expression. Gene expression levels were normalized to Actb transcripts. XBP1 splicing is calculated as XBP1s expression divided by total XBP1 expression. A single oral dose of Compound C suppressed IRE1a-dependent XBP1 splicing in tumor cells and relevant immune cells in vivo over 24 hours, FIG. 7.
Mice (n=3) with established metastatic ovarian cancer were orally gavaged with 45 mg/kg vehicle control or inhibitor dissolved in H2O. […] Gene expression was evaluated by quantitative PCR for XBP1s and total XBP1 transcripts using the 2^(−ΔCT) method for calculating normalized gene expression. […] XBP1 splicing is calculated as XBP1s expression divided by total XBP1 expression. […]

[5] = tested on: IRE1a-mediated XBP1 splicing; test: Target engagement in pancreas and salivary gland (XBP1 splicing RT-qPCR); assay type: in vivo, mouse; settings: mice, 30 mg/kg oral gavage, 6 hours, compared to control and Compound B
Protocol: Mice (n=3 per group) were orally gavaged with 30 mg/kg vehicle control or IRE1 inhibitors dissolved in H2O. After 6 hours, mice were euthanized and pancreas and salivary gland tissues were isolated, snap frozen on dry ice, and used for subsequent RT-qPCR analysis of beta-actin, XBP1s and total XBP1. Gene expression was evaluated by quantitative PCR for XBP1s and total XBP1 transcripts using the 2^(−ΔCT) method for calculating normalized gene expression. Gene expression levels were normalized to Actb transcripts. XBP1 splicing is calculated as XBP1s expression divided by total XBP1 expression.

in vivo = settings: mouse
[6] = Bioavailability assay (pharmacokinetic study); settings: mouse; IV 1 mg/kg, PO 10 or 30 mg/kg
MDA-MB-231 tumors = test: MDA-MB-231 human triple negative breast carcinoma xenograft in athymic nude mice; assay type: in vivo, mouse; settings: MDA-MB-231 xenograft mice, 24 hours after first dose and at endpoint/Day 29
Protocol: Tumor Cell Culture and Implantation: MDA-MB-231 cells were grown to mid-log phase in RPMI 1640 medium containing 10% fetal bovine serum, 2 mM glutamine, 100 units/mL sodium penicillin G, 25 μg/mL gentamicin, and 100 μg/mL streptomycin sulfate. The tumor cells were cultured in tissue culture flasks in a humidified incubator at 37° C., in an atmosphere of 5% CO2 and 95% air. The cells were harvested during exponential growth and resuspended in cold phosphate buffered saline (PBS). Each test animal was injected subcutaneously in the right flank with 5×10^6 MDA-MB-231 cells in a 0.1 mL cell suspension. Tumor growth was monitored as the average tumor size approached the target range of 100 to 150 mm^3. Tumors were measured in two dimensions using calipers, and volume was calculated using the formula:
where w=width and l=length in mm of a MDA-MB-231 tumor. […]
Endpoint and Tumor Growth Inhibition (TGI) Analysis: Tumors were measured using calipers twice a week for the study duration. […] The study ended on Day 29 and data from this day was analyzed to determine the MTV (n), the median tumor volume for the number of animals, n, on the final day (Day 29) for each group. […] Percent tumor growth inhibition (% TGI) was defined as the difference between the MTV of the designated control group (Group 1) and the MTV of the drug-treated group, expressed as a percentage of the MTV of the control; group: […]

T1 sequence (O75460 19-977): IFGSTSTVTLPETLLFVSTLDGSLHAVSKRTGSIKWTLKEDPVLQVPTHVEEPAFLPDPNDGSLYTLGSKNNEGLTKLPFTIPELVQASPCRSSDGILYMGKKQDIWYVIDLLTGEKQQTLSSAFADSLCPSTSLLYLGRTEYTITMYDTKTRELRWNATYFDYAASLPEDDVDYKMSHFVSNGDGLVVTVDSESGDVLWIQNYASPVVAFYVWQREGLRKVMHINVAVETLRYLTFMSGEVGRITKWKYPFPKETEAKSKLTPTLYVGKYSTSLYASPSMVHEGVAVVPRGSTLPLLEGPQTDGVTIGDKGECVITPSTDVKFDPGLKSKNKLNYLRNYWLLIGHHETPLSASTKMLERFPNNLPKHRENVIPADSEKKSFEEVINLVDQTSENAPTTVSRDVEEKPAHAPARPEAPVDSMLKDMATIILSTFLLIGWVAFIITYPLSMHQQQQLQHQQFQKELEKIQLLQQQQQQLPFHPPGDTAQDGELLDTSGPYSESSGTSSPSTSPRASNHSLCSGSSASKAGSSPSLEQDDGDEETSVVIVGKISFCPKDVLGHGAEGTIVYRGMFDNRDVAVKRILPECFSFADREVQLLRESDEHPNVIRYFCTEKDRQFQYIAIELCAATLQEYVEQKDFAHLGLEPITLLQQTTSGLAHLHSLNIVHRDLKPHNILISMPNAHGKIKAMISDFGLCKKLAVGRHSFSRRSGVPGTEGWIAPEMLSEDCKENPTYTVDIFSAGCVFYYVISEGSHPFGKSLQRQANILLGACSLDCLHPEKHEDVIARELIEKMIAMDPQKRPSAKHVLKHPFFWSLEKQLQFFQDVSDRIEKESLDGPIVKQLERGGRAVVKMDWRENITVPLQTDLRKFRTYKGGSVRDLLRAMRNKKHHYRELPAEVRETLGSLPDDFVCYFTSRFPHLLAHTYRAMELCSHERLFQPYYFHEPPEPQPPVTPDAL

SMILES: CCc1cc(-c2ccc(NS(=O)(=O)c3cccc(C)c3Cl)nc2C)cc2cnc(N[C@H]3CC[C@H](N(C)C)CC3)nc12 [160; Formic Acid Salt]
- IC50 (IRE1a [1]): ≤ 5 nM
- EC50 (IRE1a [2]): ≤ 5 nM

SMILES: CCc1c(F)c(-c2ccc(NS(=O)(=O)c3ccccc3Cl)nc2C)cc2cnc(N[C@H]3CC[C@H](N(C)C)CC3)nc12 [161; Formic Acid Salt]
- IC50 (IRE1a [1]): ≤ 5 nM
- EC50 (IRE1a [2]): ≤ 5 nM

SMILES: CCc1c(F)c(-c2cc(F)c(NS(=O)(=O)c3ccccc3Cl)nc2C)cc2cnc(N[C@H]3CC[C@H](N(C)C)CC3)nc12 [162; Formic Acid Salt]
- IC50 (IRE1a [1]): ≤ 5 nM
- EC50 (IRE1a [2]): ≤ 5 nM

SMILES: CCc1c(F)c(-c2cc(F)c(NS(=O)(=O)c3ccccc3Cl)nc2OC)cc2cnc(N[C@H]3CC[C@H](N(C)C)CC3)nc12 [163; Formic Acid Salt]
- IC50 (IRE1a [1]): ≤ 5 nM
- EC50 (IRE1a [2]): ≤ 5 nM

SMILES: CCc1cc(-c2ccc(NS(=O)(=O)c3ccccc3Cl)nc2C)cc2cnc(N[C@H]3CC[C@H](N(C)C)CC3)nc12 [Compound 91, 2-chloro-N-(5-(2-(((1r,4r)-4-(dimethylamino)cyclohexyl)amino)-8-ethylquinazolin-6-yl)-6-methylpyridin-2-yl)benzenesulfonamide]
- metabolism of N,N-dimethyl compounds [3]: removal of the methyl groups
- shift in potency between Compound A and Compound C (XBP1 splicing inhibition) (IRE1a/XBP1 pathway): approximately 3.6 ×

SMILES: CCc1cc(-c2ccc(NS(=O)(=O)c3ccccc3Cl)nc2OC)cc2cnc(N[C@H]3CC[C@H](N(C)C)CC3)nc12 [Compound 99, 2-chloro-N-(5-(2-(((1r,4r)-4-(dimethylamino)cyclohexyl)amino)-8-ethylquinazolin-6-yl)-6-methoxypyridin-2-yl)benzenesulfonamide]
- IRE1a-dependent XBP1 splicing in FACS-isolated ascites cells [4]: suppressed
- IRE1a-mediated XBP1 splicing in pancreas and salivary gland [5]: potently suppressed
- metabolism of N,N-dimethyl compounds [3]: removal of the methyl groups

SMILES: CCc1cc(-c2ccc(NS(=O)(=O)c3ccccc3Cl)nc2OC)cc2cnc(N[C@H]3CC[C@H](N(C)C)CC3)nc12 [Compound 99]
- bioavailability (in vivo): 70%

SMILES: CCc1cc(-c2ccc(NS(=O)(=O)c3ccccc3Cl)nc2C)cc2cnc(N[C@H]3CC[C@H](N)CC3)nc12 [Compound A, N-(5-(2-(((1r,4r)-4-aminocyclohexyl)amino)-8-ethylquinazolin-6-yl)-6-methylpyridin-2-yl)-2-chlorobenzenesulfonamide]
- oral bioavailability [6]: 4%

SMILES: COc1cc2c(C)c(CC(=O)N3CCOCC3)c(=O)oc2c(C=O)c1O [MKC-8866]
- exposure (plasma compound levels) (MDA-MB-231 tumors): significantly higher with multi-dosing
